Laboratory results from ChEMBL document CHEMBL3507680, “University of Dundee, Gates Library screen for HepG2 cell viability”.

Test: Human HepG2 cell viability assay in 384 well format
Assay type: toxicity, cell-based
Design: dose 125 nL, time 70.5 hour; cytotoxicity at 70.5 h: concentration not given beside the values
Settings: HepG2 cells, read-out: Inhibition

## Cc1nc(C#N)c(N2CCC(c3nc(-c4ccc(F)cc4)no3)CC2)o1
  cytotoxicity at 70.5 h: 28.5%

## CC(C)N1C(=O)CC(N2CCN(c3ccc(F)cc3)CC2)C1=O (configuration not stated)
  cytotoxicity at 70.5 h: 6.65%

## CNC(=O)c1sccc1N(C)S(=O)(=O)c1ccc(Cl)cc1
  cytotoxicity at 70.5 h: 19.5%

## CCNC(=O)c1sccc1N(C)S(=O)(=O)c1ccc(Cl)cc1
  cytotoxicity at 70.5 h: 1.21%

## CN(C)CCNC(=O)c1sccc1N(C)S(=O)(=O)c1ccc(Cl)cc1
  cytotoxicity at 70.5 h: -17.4%

## O=C(c1cc(-n2cnnn2)ccc1Cl)N1CCN(c2ccccc2)CC1
  cytotoxicity at 70.5 h: -1.12%

## CC(C)n1ncc2c1NC(=O)CC2c1ccccc1Cl (configuration not stated)
  cytotoxicity at 70.5 h: -6.71%

## Cn1ncc2c1NC(=O)CC2c1c(Cl)cccc1Cl (configuration not stated)
  cytotoxicity at 70.5 h: -16.4%

## Cc1cccc(NC(=O)c2nn(C3CCS(=O)(=O)C3)c3c2CCCC3)n1 (configuration not stated)
  cytotoxicity at 70.5 h: -27.2%

## Cn1ncc2c1NC(=O)CC2c1c(F)cccc1Cl (configuration not stated)
  cytotoxicity at 70.5 h: -5.11%

## COc1cccc(C2SCC(=O)Nc3n[nH]cc32)c1OC(C)C (configuration not stated)
  cytotoxicity at 70.5 h: -20.4%

## NC(=O)C1CCN(C(=O)c2cc(-n3cnnn3)ccc2Cl)CC1
  cytotoxicity at 70.5 h: -14.1%

## COC(=O)CNC(=O)c1c(-n2cnnn2)sc2c1CCCC2
  cytotoxicity at 70.5 h: -14.5%

## Oc1nc(N2CCCC2)nc2nccc(-c3ccccn3)c12
  cytotoxicity at 70.5 h: -22.4%

## CC(C)CCn1[nH]c(CNc2ccc(F)cc2)nc1=O
  cytotoxicity at 70.5 h: -10.3%

## Cn1ncc2c1NC(=O)CC2c1cc(Cl)ccc1F (configuration not stated)
  cytotoxicity at 70.5 h: 47.5%

## Cn1ncc2c1NC(=O)CC2c1ccccc1Br (configuration not stated)
  cytotoxicity at 70.5 h: -12.4%

## CC(C)CCn1nc(CNc2ccc(Br)cc2)nc1O
  cytotoxicity at 70.5 h: -17.8%

## CNc1nc2c(s1)C(c1ccccc1F)CC(=O)N2 (configuration not stated)
  cytotoxicity at 70.5 h: 9.16%

## Cc1cc(O)c(OCC(=O)Nc2nc3c(s2)CCCC3)cn1
  cytotoxicity at 70.5 h: -22.4%

## Cc1cc(NC(=O)c2nn(C3CCS(=O)(=O)C3)c3c2CCCC3)no1 (configuration not stated)
  cytotoxicity at 70.5 h: -24.1%

## CCc1c(C(=O)O)nnn1-c1cc(C)ccc1C
  cytotoxicity at 70.5 h: -2.96%

## CCOc1cc(=O)n2c(c1C(=O)OCc1cccc(C)c1)CCCC2
  cytotoxicity at 70.5 h: -11.3%

## CCn1nccc1CNC(=O)C1CC1
  cytotoxicity at 70.5 h: -10.1%

## Cc1nn(C)c2c(NCc3ccccc3F)nc(C3CC3)nc12
  cytotoxicity at 70.5 h: -5.5%

## Cc1nc(NCc2cccnc2)c2c(n1)c(C)nn2C
  cytotoxicity at 70.5 h: -11.5%

## Cc1ncc2c(n1)CCCC2NC(=O)c1ccncc1 (configuration not stated)
  cytotoxicity at 70.5 h: 14.6%

## O=C1CCOC[C@]2(CN(Cc3ccccc3)C[C@H]2c2ccccc2F)N1
  cytotoxicity at 70.5 h: 1.5%

## c1cnc(N2CCCC(c3csc(Nc4cnccn4)n3)C2)nc1 (configuration not stated)
  cytotoxicity at 70.5 h: 19.8%

## CCCC(=O)N1CCC(Nc2nc(O)cc(-c3ccsc3)n2)CC1
  cytotoxicity at 70.5 h: -3.98%

## O=C(C1CC1)N1CCC(Nc2nc(O)cc(-c3ccsc3)n2)CC1
  cytotoxicity at 70.5 h: -8.33%

## CNC(=O)[C@@H]1CN(C(=O)COC)C[C@H]1c1ccnc(N2CCCC2)n1
  cytotoxicity at 70.5 h: -5.21%

## COCCC(=O)NCc1ccc(-c2ccccc2C(=O)O)nc1
  cytotoxicity at 70.5 h: -3.04%

## CC(C)C(=O)NC(Cc1cc(N(C)C)nc(C2CC2)n1)c1ccccc1 (configuration not stated)
  cytotoxicity at 70.5 h: 3.43%

## Cc1nc(CCC(N)=O)cc(C2CCCCN2S(C)(=O)=O)n1 (configuration not stated)
  cytotoxicity at 70.5 h: -1.31%

## c1cc(C2CCN(c3cnccn3)CC2)ccn1
  cytotoxicity at 70.5 h: 17.3%

## Cc1nc(CN2CCCC2c2[nH]ncc2C(=O)N(C)C)cs1 (configuration not stated)
  cytotoxicity at 70.5 h: -2.79%

## CN(C)c1ccc(C2CCN(c3cnccn3)CC2)nc1
  cytotoxicity at 70.5 h: 6.87%

## Cc1nc(C)c(CC(=O)N2CCC(c3ccn4nccc4n3)CC2)s1
  cytotoxicity at 70.5 h: -1.07%

## CC(C)N1CCCC(c2cc(C(F)(F)F)nc3nccn23)C1 (configuration not stated)
  cytotoxicity at 70.5 h: -0.494%

## Cc1c(C)n(CC(O)CN2CCOCC2)c2c(Cl)cccc12 (configuration not stated)
  cytotoxicity at 70.5 h: 11.2%

## Cc1c(C)n(CC(O)CN2CCN(CCO)CC2)c2c(Cl)cccc12 (configuration not stated)
  cytotoxicity at 70.5 h: 10%

## CCNCc1ccc(OCc2ccc3c(c2)OCCO3)cc1
  cytotoxicity at 70.5 h: 22.5%

## COCCN1CCCn2cnc(CNC3CCCC3)c2C1
  cytotoxicity at 70.5 h: 0.0497%

## CN1CCO[C@H]2CN(S(=O)(=O)c3ccc(C#N)cc3)C[C@H]21
  cytotoxicity at 70.5 h: 3.3%

## Cc1nc(NCc2ccco2)nc2c1COCC21CCNC1 (configuration not stated)
  cytotoxicity at 70.5 h: -8.24%

## COCC(=O)N1CCC2(CC1)CNc1ccc(F)cc12
  cytotoxicity at 70.5 h: -9.36%

## Cc1cnc(N2C[C@H]3CCN(CC4CC4)C[C@@H]3C2)nc1
  cytotoxicity at 70.5 h: 7.8%

## Cc1cccc(N2CCCC3(C2)CN(S(=O)(=O)C2CC2)CCO3)c1 (configuration not stated)
  cytotoxicity at 70.5 h: -3.02%

## c1csc(CN2CCc3onc(Cn4cccc4)c3C2)c1
  cytotoxicity at 70.5 h: 2.81%

## CC(=O)N1CCn2c(-c3cccc(F)c3)cnc2C12CCNCC2
  cytotoxicity at 70.5 h: -7.49%

## O=C(Cc1ccccn1)N1CCC2(CC1)CN(CC1CC1)C(=O)CO2
  cytotoxicity at 70.5 h: -5.52%

## CC(=O)N1[C@H](CN(C)C)C[C@@H]2CN(c3ncc(F)cn3)CC[C@@H]21
  cytotoxicity at 70.5 h: -6.27%

## CN(C)C(=O)NCc1ncn2c1CN(Cc1cccs1)CCC2
  cytotoxicity at 70.5 h: -3.13%

## CC(C)NC1CCc2c(ccc(=O)n2CCN2CCOCC2)C1 (configuration not stated)
  cytotoxicity at 70.5 h: -6.6%

## Cn1cc2c(n1)C(CNCC1CCOCC1)OCC2 (configuration not stated)
  cytotoxicity at 70.5 h: 4.92%

## Cc1cnc(N2CC[C@H]3[C@H](C[C@@H](CN(C)C)N3C)C2)nc1
  cytotoxicity at 70.5 h: -6.09%
